From patent US5569649A, “Anti-inflammatory treatment method” (Phytopharm (NA) N.V., priority 1994, dated 1996) come the findings set out here.

SMILES strings stand for the structures. Entries after “also recorded” stand apart in the source; their conditions may differ.

Series [1] in a line: Rooperol metabolites in serum after oral hypoxoside (HPLC). The note with it: for presence in serum (HPLC peak): 2 h after oral hypoxoside 1 g, one human volunteer. The class given is in vivo, human. As to the method:
The analytical column (4.6×250 mm) was packed with end-capped C8-bonded silica of 5 μm regular particle size (Whatman, Maidstone, England), while a guard column (2.1×75 mm) was packed with pellicular C18-bonded silica (Whatman). An in-line extraction pre-column (2.1×30 mm) was packed with preparative grade C18-bonded silica, 40 μm particle size (Analytichem International, Harbor City, Calif.).
Operating conditions involved a linear solvent gradient programmed at a flow rate of 1.5 ml/min starting with mobile phase A (0.05M KH2 PO4) to which 10% mobile phase B (acetonitrile-isopropanol, 80:20 v/v) was added after 0.01 min. This mixture was maintained for 1 minute after which a linear gradient of mobile phases A and B was begun, ending at 70% B after 16 minutes. The column temperature was maintained at 50° C.
The in-line extraction pre-column was loaded with sample (dissolved in 50 μl ethanol or in up to 200 μl of mobile phase A in the case of purified compounds; or a 200 μl aliquot of serum or urine from a human subject) and made up to 500 μl with an aqueous solution containing 8M guanidinium chloride and 1M ammonium sulfate. Blood samples were first converted to sera prior to analysis. The extraction column was flushed before and after sample introduction with 500 μl of aqueous 0.5M ammonium sulfate. The solutes trapped on the in-line extraction column were then eluted onto the analytical column by mobile phase after column switching and initiation of the analysis.
The detector was programmed to monitor the eluant at 260 nm and also to record absorption spectra from 200-400 nm.

Series [2] is described as follows: Hypoxoside metabolites from urine after oral hypoxoside (HPLC). The note with it: urine over 24 h after oral hypoxoside 1 g. The class given is in vivo, human. As for the experimental part:
Example 7 describes the characterization of the rooperol metabolites which were excreted in the urine of the same subject. Urine from the same volunteer as above was collected over 24 hours following administration of the hypoxoside. The collected sample was filtered and purified by passage through a column bed of C18-bonded silica.
The urine from the volunteer in Example 6 was collected over the first 24 hours following administration of hypoxoside and then processed as follows. C18-bonded silica sorbent material (200 g, 40 μm) was pre-treated with methanol and water via a column bed. Filtered urine (5 l) was passed through the sorbent bed, followed by elution in sequence with water (400 ml), aqueous methanol (10% v/v, 400 ml), aqueous methanol (30% v/v, 800 ml) and finally with methanol (400 ml) and water (400 ml). The aqueous methanol fraction (30% v/v, 800 ml) was diluted with water (1600 ml) and again passed through the sorbent bed which was then eluted with water (400 ml) and finally with methanol (400 ml). The final methanol solution was evaporated under vacuum at 50° C. to an aqueous residue which was lyophilized to yield 1 g of a mixture of hypoxoside metabolites and endogenous urine components.
A suitable volume of filtered aqueous solution of this residue (10 mg/ml) was injected onto the in-line pre-column of the analytical HPLC system (Example 5) such that 3 fractions designated A, B, and C having the same retention times as the corresponding peaks observed in serum (Example 6) were collected at the column outlet (see FIG. 4). These fractions were rendered free of mobile phase buffer salts by standard reverse phase sorption technique and lyophilized to dryness.

Series [3] can be described thus: Pharmacokinetics of hypoxoside metabolites, multiple-dose study. In kind it is in vivo, human. The note with it: 800 mg H. rooperii methanol-extract 3 times daily for 9 days. As for the experimental part: In a random, multiple-dose study, 6 subjects received 800 mg of H. rooperii methanol-extract 3 times daily for 9 days, and blood samples were collected daily for 12 days (with the exception that no samples were collected on day 11).

Series [4] concerns IL-1β production by lipopolysaccharide-stimulated human peripheral blood mononuclear cells. The series is described as follows: Inhibition of IL-1β production by LPS-stimulated human PBMCs (ELISA). In kind it is cell-based. Conditions: for inhibition of IL-1β production, in words: activated human mononuclear cells, 1-10 μM rooperol. As to the method: (§1) In the study detailed in Example 4, cultured PBMCs enriched in monocytes were stimulated with lipopolysaccharide (20 μg/ml) in the presence and absence of rooperol at concentrations of 1-10 μM. After overnight incubation, the cells were collected and lysed, and the concentrations of TNF-α and IL-1β were measured by ELISA.
(§2) Peripheral blood mononuclear cells (PBMs) from normal human donors were separated on a Ficoll-Paque gradient and enriched in monocytes by adherence. PBMs were cultured in 12-well plates (2×10^6 cells/ml/well) in RPMI 1640 supplemented with 5% fetal calf serum.
(§3) Cultures were stimulated with lipopolysaccharide (LPS, 20 ug/ml), with or without rooperol at concentrations of 1, 2, 5, and 10 μM, and incubated overnight in 5% CO2. The cells were pelleted, resuspended in RPMI medium, and freeze-thawed five times to produce lysates. All samples were stored at -20° C. until cytokine concentrations were determined by commercial ELISA assays.

Series [5] in a line: HPLC of fecal specimen after oral hypoxoside. The class given is in vivo, human. Conditions: after oral hypoxoside 1 g. As for the experimental part: In addition, a fecal specimen was also obtained from the subject and, following extraction, was analyzed by HPLC as above (FIG. 5).
Series [6] can be described thus: Phase I dosing: hypoxoside and metabolites in serum. The class given is in vivo. Conditions: oral hypoxoside preparation 1.6, 2.4 and 3.2 g, 20 human subjects. The text has this: In a Phase I dose-ranging and toxicity study, 20 human subjects were given oral doses of a hypoxoside preparation obtained by the methanol extraction procedure described in Example 1. The dosages were 1.6, 2.4, and 3.2 g. Following administration of the hypoxoside preparation, blood samples were collected periodically from the subjects for measurement of hypoxoside and its metabolites. The samples were converted to sera and processed as described in Example 5. The only hypoxoside/rooperol compounds detected were the sulfate and glucuronide metabolites of rooperol noted in Examples 6 and 7.

Series [7] concerns TNF-α production by lipopolysaccharide-stimulated human peripheral blood mononuclear cells. The series is described as follows: Inhibition of TNF-α production by LPS-stimulated human PBMCs (ELISA). Conditions: for inhibition of TNF-α production, in words: LPS-stimulated human PBMCs, 1-10 μM rooperol. In kind it is cell-based. As for the experimental part: as §1, §2, §3
On the technique in general: ELISA stands for enzyme-linked immunosorbent assay.

The nature of series [8]: Susceptibility to air oxidation. The class given is physicochemical.
Series [9] in a line: Anti-inflammatory activity (general statement).

Consider `O=C(O)[C@H]1O[C@@H](Oc2ccc(C#CC/C=C/c3ccc(O[C@@H]4O[C@H](C(=O)O)[C@@H](O)[C@H](O)[C@H]4O)c(O)c3)cc2O)[C@H](O)[C@@H](O)[C@@H]1O` [A, rooperol 4,4'-diglucuronide], for which, in [1], the “presence in serum (HPLC peak)” value was “appearance of three new peaks”. Besides, the “presence in urine (HPLC peak)” value in series [2] is given as “found in the urine sample”. In series [3], the “relative abundance of metabolite in serum” value was “minor metabolites”.
The corresponding values for `O=S(=O)(O)Oc1ccc(C#CC/C=C/c2ccc(OS(=O)(=O)O)c(O)c2)cc1O` [C, rooperol 4,4'-disulfate] are “appearance of three new peaks”, “found in the urine sample” and “minor metabolites”.
For the compound `OC[C@H]1O[C@@H](Oc2ccc(C#CC/C=C/c3ccc(O[C@@H]4O[C@H](CO)[C@@H](O)[C@H](O)[C@H]4O)c(O)c3)cc2O)[C@H](O)[C@@H](O)[C@@H]1O` [hypoxoside], in series [4], the “inhibition of IL-1β production, in words” value is “inactive”. Further, the “presence in serum (HPLC peak)” value in [1] was “None of these peaks corresponded to rooperol or hypoxoside”. For the same compound, in series [1] (oral hypoxoside, humans), the “toxicity of metabolites, in words” value is recorded as “metabolized to non-toxic derivatives” and the “uptake into the bloodstream” value is given as “taken up rapidly into the bloodstream”. Further, the “presence in fecal specimen (HPLC peak)” value in [5] was “No peaks were detectable”. The detection in serum result in [6] was “Neither hypoxoside nor rooperol could be detected”. Also, the “inhibition of TNF-α production, in words” value in series [7] is “inactive”. The “presence in urine (HPLC peak)” value in series [2] is listed as “None of the other urinary peaks corresponded to rooperol or hypoxoside”.
In the case of `Oc1ccc(C#CC/C=C/c2ccc(O)c(O)c2)cc1O` [rooperol], the IC50 is 1000 to 2000 nM in [4] (Homo sapiens, PBMC, LPS 20 μg/ml, overnight incubation, FIG. 2B, read-out: half-maximal inhibition of IL-1β production) and 1000 to 2000 nM in series [7] (Homo sapiens, PBMC, LPS 20 μg/ml, overnight incubation, FIG. 2A, read-out: half-maximal inhibition of TNF-α production). In addition, in series [4], the “inhibition of IL-1β production, in words” value is “dose-dependent inhibition; also recorded: potent inhibitor”. Further, in series [8], the “susceptibility to air oxidation” value was “susceptible to air oxidation”. In series [1], the “presence in serum (HPLC peak)” value is “None of these peaks corresponded to rooperol or hypoxoside”. The “presence in fecal specimen (HPLC peak)” value in series [5] is on record as “Only one major peak was observed, with a retention time corresponding to that of rooperol”. In series [6], the detection in serum entry was “Neither hypoxoside nor rooperol could be detected”. The “inhibition of TNF-α production” value in series [7] (10 μM rooperol, LPS 20 μg/ml) is reported as “nearly complete inhibition”. Also, the “inhibition of TNF-α production, in words” value in [7] is given as “dose-dependent inhibition; also recorded: potent inhibitor”. Further, in [2], the “presence in urine (HPLC peak)” value is on record as “None of the other urinary peaks corresponded to rooperol or hypoxoside”. Moreover, the anti-inflammatory activity entry in [9] was “significant anti-inflammatory activity”.
